Measurements published in ChEMBL document CHEMBL1201862, “PubChem BioAssay data set” (2004).
Activity calls are given as the source filed them.

What was measured:
Galanin receptor type 3 = Galanin receptor type 3 (Homo sapiens, UniProt O60755); experiment: Fluorescence-based cell-based primary high throughput dose response assay to identify antagonists of the Galanin Receptor 3 (GalR3).; format: functional
Jurkat = experiment: antigen receptor-induced NF-kB inhibitors, dose response, Jurkat, luciferase reporter, luminescence, B- and T-cell (AID 489004); format: functional, cell-based; settings: Homo sapiens;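 also: NF-kB luciferase reporter Jurkat cells stimulated with PMA plus ionomycin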
cells = format: functional, cell-based; settings: HEK-CNG
[1] = cytotoxicity in HEK-293T NF-kB-Luc cells, dose response, cytotoxicity control for B/T-cell NF-kB inhibitor project, cell-based, uHTS hits (AID 489019); format: functional;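 also: IC50 reflects cytotoxicity as loss of cell viability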
[2] = inhibitors of clade B AD8 Env fusion, dose response, cell-based, cherry-pick (AID 652062); format: functional;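 also: luciferase signal from cell-cell fusion driven by HIV-1 clade B AD8 Env; potency is for inhibitors of fusion seen as a drop in luminescence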
[3] = off-target signal loss in HeLa-CEM21 co-culture – HeLa F-luc CTL cells, cherry-picked, counter-screen for HIV-1 Env fusion inhibitor project, dose response (AID 652040); format: functional, cell-based;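 also: potency for signal decrease marking cytotoxic or nonspecific inhibition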
[4] = CEM21 lymphoblast cell cytotoxicity, dose response, cytotoxicity control for viral fusion inhibitor project, CellTiter-Glo luminescence, cherry-picked (AID 652042); format: functional, cell-based;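 also: potency for signal decrease meaning cytotoxicity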
INS1 = experiment: beta cell apoptosis inhibitors, cytokine rescue, dose response, luminescence, retest (AID 449756); format: functional, cell-based; settings: Rattus norvegicus;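 also: cell death triggered by IL-1 beta plus TNF-alpha plus IFN-gamma mixture; protective hits raise ATP signal compared with cytokine alone wells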
[5] = target: Disintegrin and metalloproteinase domain-containing protein 17 (Homo sapiens, UniProt P78536); experiment: ADAM17 protease inhibitors, dose response, counter-screen for ADAM10 exosite inhibitor project, biochemical, quenched FRET substrate (AID 743253)
[6] = ZM109 Env clade C HIV-1 fusion inhibitors, dose response, HeLa effector, CEM target cells, luciferase, cherry-pick (AID 652058); format: functional, cell-based
[7] = ADAM10 inhibitors, peptide cleavage, dose response, biochemical, QFRET (AID 743254);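 also: ADAM10 enzyme with the DM2 quenched FRET peptide as substrate; EDANS fluorescence gain as the protease cuts the substrate; inhibitor potency against ADAM10 proteolytic activity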
[8] = inhibitors of HIV Env-driven cell fusion, dose response, cherry-pick (AID 652057); format: functional, cell-based
CAAX prenyl protease 2 = CAAX prenyl protease 2 (Homo sapiens, UniProt Q9Y256); experiment: human Rce1 protease inhibitors, dose response, biochemical, yeast membranes, quenched-peptide fluorescence, cherry-pick (AID 588849)
[9] = target: Latent membrane protein 1 (Human herpesvirus 4 (strain B95-8), UniProt P03230); experiment: TES1-eGFP NF-kB reporter inhibition versus Tet-On dsRED, dose response, selectivity assay for LMP1 NF-kB inhibitor project, imaging, HEK293T, dual-color eGFP/dsRED, cherry-picks (AID 588398); format: functional, cell-based
HEK293 = experiment: inhibitors of LMP1-driven NF-kB reporter, dose response, cell-based, HEK293, luciferase, cherry-pick (AID 588343); format: functional; settings: Homo sapiens
Escherichia coli [10] = experiment: microbe, parasite or virus in culture
Escherichia coli [11] = experiment: microbe, parasite or virus in culture; remark: listed apart in the source
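For EC50 in this document: target is galanin receptor GalR3 read with a cAMP biosensor in HEK293 cells.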

Latent membrane protein 1, sequence (P03230 whole entry): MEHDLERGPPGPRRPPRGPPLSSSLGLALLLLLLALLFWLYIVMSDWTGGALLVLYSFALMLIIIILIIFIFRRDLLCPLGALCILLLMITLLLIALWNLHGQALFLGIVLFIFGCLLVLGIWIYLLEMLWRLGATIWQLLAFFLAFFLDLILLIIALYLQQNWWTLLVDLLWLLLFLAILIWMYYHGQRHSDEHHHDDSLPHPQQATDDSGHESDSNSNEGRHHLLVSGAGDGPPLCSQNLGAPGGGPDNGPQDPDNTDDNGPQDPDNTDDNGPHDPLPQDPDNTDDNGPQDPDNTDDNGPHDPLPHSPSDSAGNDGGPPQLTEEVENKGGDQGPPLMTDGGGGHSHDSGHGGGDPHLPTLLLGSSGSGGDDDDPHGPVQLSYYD
Galanin receptor type 3, sequence (O60755 whole entry): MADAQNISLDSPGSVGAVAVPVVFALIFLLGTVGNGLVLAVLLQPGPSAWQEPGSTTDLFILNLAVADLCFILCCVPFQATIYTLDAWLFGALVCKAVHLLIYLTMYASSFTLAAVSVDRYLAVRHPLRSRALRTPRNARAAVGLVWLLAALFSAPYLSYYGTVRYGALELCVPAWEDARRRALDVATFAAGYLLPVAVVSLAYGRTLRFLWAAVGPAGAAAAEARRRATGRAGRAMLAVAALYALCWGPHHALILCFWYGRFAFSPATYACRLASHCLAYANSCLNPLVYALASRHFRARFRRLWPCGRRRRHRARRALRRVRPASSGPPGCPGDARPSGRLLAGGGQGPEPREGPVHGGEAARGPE
Disintegrin and metalloproteinase domain-containing protein 17, sequence (P78536 whole entry, the tested form may be a part): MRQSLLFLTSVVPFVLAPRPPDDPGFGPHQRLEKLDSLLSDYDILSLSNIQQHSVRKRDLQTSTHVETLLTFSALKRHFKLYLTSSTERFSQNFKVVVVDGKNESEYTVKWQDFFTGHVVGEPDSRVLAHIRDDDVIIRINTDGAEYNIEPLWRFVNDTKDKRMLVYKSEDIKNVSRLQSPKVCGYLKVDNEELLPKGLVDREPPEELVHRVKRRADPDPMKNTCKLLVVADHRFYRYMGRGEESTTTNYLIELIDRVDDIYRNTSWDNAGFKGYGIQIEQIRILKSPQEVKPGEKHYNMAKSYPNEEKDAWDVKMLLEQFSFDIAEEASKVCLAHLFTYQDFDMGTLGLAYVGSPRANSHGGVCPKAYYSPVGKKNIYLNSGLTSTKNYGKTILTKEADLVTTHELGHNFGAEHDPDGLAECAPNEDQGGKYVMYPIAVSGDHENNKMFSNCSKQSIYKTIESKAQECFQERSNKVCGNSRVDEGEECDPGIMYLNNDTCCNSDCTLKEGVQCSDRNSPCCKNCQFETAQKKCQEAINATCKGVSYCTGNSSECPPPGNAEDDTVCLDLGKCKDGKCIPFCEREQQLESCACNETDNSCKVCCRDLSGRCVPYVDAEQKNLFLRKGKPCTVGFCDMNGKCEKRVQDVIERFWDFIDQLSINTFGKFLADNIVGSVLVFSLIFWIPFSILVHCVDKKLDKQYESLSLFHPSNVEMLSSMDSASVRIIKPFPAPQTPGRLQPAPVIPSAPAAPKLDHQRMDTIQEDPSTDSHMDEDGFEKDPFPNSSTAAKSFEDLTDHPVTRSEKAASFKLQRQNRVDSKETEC
CAAX prenyl protease 2, sequence (Q9Y256 whole entry): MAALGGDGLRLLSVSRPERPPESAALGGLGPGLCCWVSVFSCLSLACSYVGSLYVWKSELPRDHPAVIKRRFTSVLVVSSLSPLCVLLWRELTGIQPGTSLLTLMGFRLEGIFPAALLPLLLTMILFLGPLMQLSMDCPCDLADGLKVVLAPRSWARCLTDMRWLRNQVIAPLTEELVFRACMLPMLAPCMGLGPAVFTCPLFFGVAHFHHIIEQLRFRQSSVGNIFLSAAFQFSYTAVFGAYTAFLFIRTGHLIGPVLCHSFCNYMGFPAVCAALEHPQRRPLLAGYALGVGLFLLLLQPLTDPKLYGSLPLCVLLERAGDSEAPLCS

**Q.** For `COc1cc2c(cc1OC)[C@@H]1C(=O)c3ccc4c(c3O[C@@H]1CO2)C[C@H](C(C)C)O4`, which IC50 (Galanin receptor type 3) is on record?
**A.** 0.0154 µM (active)

**Q.** What about the IC50 (Jurkat) of the same compound?
**A.** > 80 µM (inactive)

**Q.** What about the EC50 (cells) of the same compound?
**A.** > 29.9 µM (inactive)

**Q.** And the IC50 [1]?
**A.** > 80 µM (inactive)

**Q.** What does the source list for `COc1ccccc1NC(=O)CN(c1ccc(C23CC4CC(CC(C4)C2)C3)cc1)S(C)(=O)=O`?
**A.** AC50 [2]: 8.59 µM (active); AC50 [3]: 8.12 µM (active); AC50 [4]: 47 µM (active); AC50 (INS1): 4.49 µM (active); IC50 [5]: > 69.5 µM (inactive); AC50 [6]: 3.45 µM (active); IC50 [7]: > 69.5 µM (inactive); AC50 [8]: 4.53 µM (active); AC50 (CAAX prenyl protease 2): 40.9 µM (active)

**Q.** What does the source list for `COc1cc([C@@H]2c3cc4c(cc3[C@@H](O[C@@H]3O[C@@H]5CO[C@@H](C)O[C@H]5[C@H](O)[C@H]3O)[C@H]3COC(=O)[C@H]23)OCO4)cc(OC)c1O` [ETOPOSIDE]?
**A.** AC50 [9]: 0.4 µM (active); AC50 (HEK293): 0.784 µM (active)

**Q.** For `COCCN1Cc2cccc(C(=O)N3CCN(c4cc(C)ccc4C)CC3)c2C1=O`, which AC50 [9] is on record?
**A.** 53.1 µM (active)

**Q.** With `Cn1ncc(Cl)c1C(=O)NCc1ccc(Cl)cc1` as the compound, how does the AC50 (Escherichia coli [10]) read?
**A.** 22.7 µM (active)

**Q.** Which AC50 (Escherichia coli [11]) does the source give for `CO[C@H]1/C=C\O[C@@]2(C)Oc3c(C)c(O)c4c(O)c(c5c(c4c3C2=O)=NC2(CCN(CC(C)C)CC2)N=5)NC(=O)/C(C)=C\C=C/[C@H](C)[C@H](O)[C@@H](C)[C@@H](O)[C@@H](C)[C@H](OC(C)=O)[C@@H]1C` here?
**A.** 15.9 µM (active)
